# Measurements reported in ChEMBL document CHEMBL3885881, “DrugMatrix”.
# Organism: Rattus norvegicus
# Assay: DrugMatrix - Regimen: Daily Repeat
# Format: toxicity, organism-based, Sprague-Dawley
# Parameters: regimen Daily Repeat, gender Male, age 6-8 weeks
# Details: in vivo, po, route oral GAVAGE, […]; for ABSOLUTE BASOPHIL / ABSOLUTE EOSINOPHIL / ABSOLUTE LYMPHOCYTE / ABSOLUTE MONOCYTE / ABSOLUTE SEGMENTED NEUTROPHIL / BASOPHIL / EOSINOPHIL / ERYTHROCYTE COUNT / HEMATOCRIT / HEMOGLOBIN / LEUKOCYTE COUNT / LYMPHOCYTE / MEAN CORPUSCULAR HEMOGLOBIN / MEAN CORPUSCULAR HEMOGLOBIN CONCENTRATION / MEAN CORPUSCULAR VOLUME / MONOCYTE / NEUTROPHIL / NUCLEATED RED BLOOD CELLS / PLATELET COUNT: tissue Blood; for ALANINE AMINOTRANSFERASE / ALBUMIN / ALKALINE PHOSPHATASE / ASPARTATE AMINOTRANSFERASE / BLOOD UREA NITROGEN / CARBON DIOXIDE / CHLORIDE / CHOLESTEROL / CREATINE PHOSPHOKINASE / CREATININE / GLUCOSE / LACTATE DEHYDROGENASE / LIPASE / PHOSPHORUS / POTASSIUM / SODIUM / TOTAL BILIRUBIN / URIC ACID / TOTAL PROTEIN: tissue Plasma
# [1] = 0.3 mg/kg, 120 h, dose level Low, time 5 day
# [2] = 150 mg/kg, 72 h, dose level High, time 3 day
# [3] = 150 mg/kg, 120 h, dose level High, time 5 day
smiles,measurement,setting,value
C[C@]12CC[C@@H]3c4ccc(O)cc4CC[C@H]3[C@@H]1CC[C@@H]2O [ESTRADIOL],ABSOLUTE BASOPHIL,[1],0 CELLS/uL
same,ABSOLUTE EOSINOPHIL,[1],0 CELLS/uL
same,ABSOLUTE LYMPHOCYTE,[1],8421.33 CELLS/uL
same,ABSOLUTE MONOCYTE,[1],178.67 CELLS/uL
same,ABSOLUTE SEGMENTED NEUTROPHIL,[1],333.33 CELLS/uL
same,BASOPHIL,[1],0%
same,EOSINOPHIL,[1],0%
same,ERYTHROCYTE COUNT,[1],5.67 x10E6/uL
same,HEMATOCRIT,[1],36.43%
same,HEMOGLOBIN,[1],14.13 G/DL
same,LEUKOCYTE COUNT,[1],8.93 x10E3/uL
same,LYMPHOCYTE,[1],94.33%
same,MEAN CORPUSCULAR HEMOGLOBIN,[1],24.93 pg
same,MEAN CORPUSCULAR HEMOGLOBIN CONCENTRATION,[1],38.77 G/DL
same,MEAN CORPUSCULAR VOLUME,[1],64.2 fL
same,MONOCYTE,[1],2%
same,NEUTROPHIL,[1],3.67%
same,NUCLEATED RED BLOOD CELLS,[1],0 /100WBC
same,PLATELET COUNT,[1],1136.67 x10E3/uL
same,ALANINE AMINOTRANSFERASE,[1],62 u/L
same,ALBUMIN,[1],4.23 G/DL
same,ALKALINE PHOSPHATASE,[1],381.67 u/L
same,ASPARTATE AMINOTRANSFERASE,[1],80.33 u/L
same,BLOOD UREA NITROGEN,[1],11 mg/dL
same,CARBON DIOXIDE,[1],31.67 mmol/L
same,CHLORIDE,[1],97 MEQ/L
same,CHOLESTEROL,[1],52.67 mg/dL
same,CREATINE PHOSPHOKINASE,[1],324.67 u/L
same,CREATININE,[1],0.15 mg/dL
same,GLUCOSE,[1],162.67 mg/dL
same,LACTATE DEHYDROGENASE,[1],166.67 u/L
same,LIPASE,[1],10.33 u/L
same,PHOSPHORUS,[1],9.63 mg/dL
same,POTASSIUM,[1],5.76 MEQ/L
same,SODIUM,[1],143 MEQ/L
same,TOTAL BILIRUBIN,[1],0.2 mg/dL
same,URIC ACID,[1],0.43 mg/dL
same,ABSOLUTE BASOPHIL,[2],0 CELLS/uL
same,ABSOLUTE EOSINOPHIL,[2],0 CELLS/uL
same,ABSOLUTE LYMPHOCYTE,[2],6738.33 CELLS/uL
same,ABSOLUTE MONOCYTE,[2],100.67 CELLS/uL
same,ABSOLUTE SEGMENTED NEUTROPHIL,[2],527.67 CELLS/uL
same,BASOPHIL,[2],0%
same,EOSINOPHIL,[2],0%
same,ERYTHROCYTE COUNT,[2],5.96 x10E6/uL
same,HEMATOCRIT,[2],36.23%
same,HEMOGLOBIN,[2],13.83 G/DL
same,LEUKOCYTE COUNT,[2],7.37 x10E3/uL
same,LYMPHOCYTE,[2],91.67%
same,MEAN CORPUSCULAR HEMOGLOBIN,[2],23.37 pg
same,MEAN CORPUSCULAR HEMOGLOBIN CONCENTRATION,[2],38.27 G/DL
same,MEAN CORPUSCULAR VOLUME,[2],61 fL
same,MONOCYTE,[2],1.33%
same,NEUTROPHIL,[2],7%
same,NUCLEATED RED BLOOD CELLS,[2],0 /100WBC
same,PLATELET COUNT,[2],934 x10E3/uL
same,ALANINE AMINOTRANSFERASE,[2],64.33 u/L
same,ALBUMIN,[2],3.8 G/DL
same,ALKALINE PHOSPHATASE,[2],760.67 u/L
same,ASPARTATE AMINOTRANSFERASE,[2],90 u/L
same,BLOOD UREA NITROGEN,[2],10 mg/dL
same,CARBON DIOXIDE,[2],33 mmol/L
same,CHLORIDE,[2],100 MEQ/L
same,CHOLESTEROL,[2],22.67 mg/dL
same,CREATINE PHOSPHOKINASE,[2],373.33 u/L
same,CREATININE,[2],0.22 mg/dL
same,GLUCOSE,[2],140.33 mg/dL
same,LACTATE DEHYDROGENASE,[2],223.67 u/L
same,LIPASE,[2],12.33 u/L
same,PHOSPHORUS,[2],8.83 mg/dL
same,SODIUM,[2],145.57 MEQ/L
same,TOTAL BILIRUBIN,[2],0.23 mg/dL
same,TOTAL PROTEIN,[2],5.87 G/DL
same,URIC ACID,[2],0.3 mg/dL
same,ABSOLUTE BASOPHIL,[3],0 CELLS/uL
same,ABSOLUTE EOSINOPHIL,[3],0 CELLS/uL
same,ABSOLUTE LYMPHOCYTE,[3],9738.33 CELLS/uL
same,ABSOLUTE MONOCYTE,[3],202.33 CELLS/uL
same,ABSOLUTE SEGMENTED NEUTROPHIL,[3],759.33 CELLS/uL
same,BASOPHIL,[3],0%
same,EOSINOPHIL,[3],0%
same,ERYTHROCYTE COUNT,[3],6.23 x10E6/uL
same,HEMATOCRIT,[3],39.2%
same,HEMOGLOBIN,[3],14.6 G/DL
same,LEUKOCYTE COUNT,[3],10.7 x10E3/uL
same,LYMPHOCYTE,[3],91%
same,MEAN CORPUSCULAR HEMOGLOBIN,[3],23.43 pg
same,MEAN CORPUSCULAR HEMOGLOBIN CONCENTRATION,[3],37.27 G/DL
same,MEAN CORPUSCULAR VOLUME,[3],62.93 fL
same,MONOCYTE,[3],2%
same,NEUTROPHIL,[3],7%
same,NUCLEATED RED BLOOD CELLS,[3],0 /100WBC
same,PLATELET COUNT,[3],1292.33 x10E3/uL
same,ALANINE AMINOTRANSFERASE,[3],55.33 u/L
same,ALBUMIN,[3],3.87 G/DL
same,ALKALINE PHOSPHATASE,[3],654.67 u/L
same,ASPARTATE AMINOTRANSFERASE,[3],67 u/L
same,BLOOD UREA NITROGEN,[3],7.67 mg/dL
same,CARBON DIOXIDE,[3],29.33 mmol/L
same,CHLORIDE,[3],99.67 MEQ/L
same,CHOLESTEROL,[3],14 mg/dL
same,CREATINE PHOSPHOKINASE,[3],271.33 u/L
same,CREATININE,[3],0.13 mg/dL
same,GLUCOSE,[3],125.67 mg/dL
same,LACTATE DEHYDROGENASE,[3],192.67 u/L
same,LIPASE,[3],7.67 u/L
same,POTASSIUM,[3],5.37 MEQ/L
same,SODIUM,[3],145.23 MEQ/L
same,TOTAL BILIRUBIN,[3],0.2 mg/dL
same,TOTAL PROTEIN,[3],6.67 G/DL
same,URIC ACID,[3],0.3 mg/dL
